According to patent US20240343704A1, “HALO-SUBSTITUTED AMINO PYRIDINE COMPOUNDS AS INHIBITORS OF THE HAEMATOPOIETIC PROGENITOR KINASE 1 (HPK1)” (priority 2021, published 2024):

Biological target: T1, Recombinant (1-346) HPK1 (h) (Homo sapiens, UniProt Q92918)
T1 construct: Recombinant (1-346) HPK1 (h) is incubated with 8 mM MOPS pH 7.0
T1 sequence (Q92918 1-346): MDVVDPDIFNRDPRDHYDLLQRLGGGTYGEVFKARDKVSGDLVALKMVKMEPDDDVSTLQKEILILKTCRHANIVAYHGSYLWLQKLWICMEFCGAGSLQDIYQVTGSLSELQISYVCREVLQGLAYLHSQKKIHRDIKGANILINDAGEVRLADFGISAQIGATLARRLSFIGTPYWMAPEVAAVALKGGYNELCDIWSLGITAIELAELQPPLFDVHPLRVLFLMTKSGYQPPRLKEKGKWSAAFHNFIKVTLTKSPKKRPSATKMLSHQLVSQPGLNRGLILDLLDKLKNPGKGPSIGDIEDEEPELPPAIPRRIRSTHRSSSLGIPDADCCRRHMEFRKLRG
Experiment: HPK1 Human STE Kinase Enzymatic Radiometric Assay
Assay type: biochemical
Conditions: read-out: HPK1 IC50 nM Range*
Protocol: A stock solution of 10 mM of test compound is prepared in DMSO. The compound plate was prepared by 3-fold and 9-point serial dilutions. […] The reaction is initiated by The addition of the Mg/ATP mix. After incubation for 40 minutes at RT, the reaction is stopped by the addition of phosphoric acid to a concentration of 0.5%.

IC50 [nM] | Compound
0.1 to 10 | Nc1nc(F)c(-c2ccc(N3CCCCC3)cc2)cc1-c1ccc2c(c1)CCNC2=O [I-60, 6-(2-amino-6-fluoro-5-(4-(piperidin-1-yl)phenyl)pyridin-3-yl)-3,4-dihydroisoquinolin-1(2H)-one]
11 to 100 | CO[C@@H]1CCN(Cc2cc(-c3cc(-c4ccc5c(c4)CCNC5=O)c(N)nc3F)ccc2N2CCOCC2)C1 [I-563, (R)-6-(2-amino-6-fluoro-5-(3-((3-methoxypyrrolidin-1-yl)methyl)-4-morpholinophenyl)pyridin-3-yl)-3,4-dihydroisoquinolin-1(2H)-one]
0.1 to 10 | COCCN(C)Cc1nc(-c2cc(-c3cc4c(cc3F)C(=O)NCC4)c(N)nc2F)ccc1N1CCOCC1 [I-583, 6-(6′-amino-2′-fluoro-6-(((2-methoxyethyl)(methyl)amino)methyl)-5-morpholino-[2,3′-bipyridin]-5′-yl)-7-fluoro-3,4-dihydroisoquinolin-1(2H)-one]
0.1 to 10 | CN(C)Cc1cc(-c2cc(-c3cc4c(cc3F)C(=O)NCC4)c(N)nc2F)ccc1N1CCN(C2CCCC2)CC1 [I-452, 6-(2-amino-5-(4-(4-cyclopentylpiperazin-1-yl)-3-((dimethylamino)methyl)phenyl)-6-fluoropyridin-3-yl)-7-fluoro-3,4-dihydroisoquinolin-1(2H)-one]
0.1 to 10 | Cc1[nH]c(=O)c2cc(F)c(-c3cc(-c4ccc(N5CCN(C(C)C)CC5)cc4)c(F)nc3N)cc2c1F [I-572, 6-(2-amino-6-fluoro-5-(4-(4-isopropylpiperazin-1-yl)phenyl)pyridin-3-yl)-4,7-difluoro-3-methylisoquinolin-1(2H)-one]
11 to 100 | COc1ccc(-c2cc(-c3ccc4c(c3)CCNC4=O)c(N)nc2F)cc1CN1CC(OC)C1 [I-516, 6-(2-amino-6-fluoro-5-(4-methoxy-3-((3-methoxyazetidin-1-yl)methyl)phenyl)pyridin-3-yl)-3,4-dihydroisoquinolin-1(2H)-one]
0.1 to 10 | Nc1nc(F)c(-c2ccc(N3CCN(CCCC(F)F)CC3)cc2)cc1-c1ccc2c(=O)[nH]cc(F)c2c1 [I-544, 6-(2-amino-5-(4-(4-(4,4-difluorobutyl)piperazin-1-yl)phenyl)-6-fluoropyridin-3-yl)-4-fluoroisoquinolin-1(2H)-one]
11 to 100 | CCN(C)Cc1cc(-c2cc(-c3cc4c(cc3F)C(=O)NCC4)c(N)nc2F)ccc1C1CCOCC1 [I-552, 6-(2-amino-5-(3-((ethyl(methyl)amino)methyl)-4-(tetrahydro-2H-pyran-4-yl)phenyl)-6-fluoropyridin-3-yl)-7-fluoro-3,4-dihydroisoquinolin-1(2H)-one]
11 to 100 | COc1ccc(-c2cc(-c3ccc4c(c3)CCNC4=O)c(N)nc2F)cc1CN(C)C [I-459, 6-(2-amino-5-(3-((dimethylamino)methyl)-4-methoxyphenyl)-6-fluoropyridin-3-yl)-3,4-dihydroisoquinolin-1(2H)-one]
0.1 to 10 | CN(C)Cc1cc(-c2cc(-c3cc4c(F)c[nH]c(=O)c4cc3F)c(N)nc2F)ccc1N1CCOCC1 [I-561, 6-(2-amino-5-(3-((dimethylamino)methyl)-4-morpholinophenyl)-6-fluoropyridin-3-yl)-4,7-difluoroisoquinolin-1(2H)-one]
0.1 to 10 | CN(Cc1cc(-c2cc(-c3ccc4c(c3)CCNC4=O)c(N)nc2F)ccc1N1CCOCC1)CC1CCCO1 (stereo not shown) [I-616, 6-(2-amino-6-fluoro-5-(3-((methyl((tetrahydrofuran-2-yl)methyl)amino)methyl)-4-morpholinophenyl)pyridin-3-yl)-3,4-dihydroisoquinolin-1(2H)-one]
11 to 100 | C[C@H]1CN(c2ccc(-c3cc(-c4cc5c(cc4F)C(=O)NCC5)c(N)nc3F)cc2CN2CCC2)CCO1 [I-599, (S)-6-(2-amino-5-(3-(azetidin-1-ylmethyl)-4-(2-methylmorpholino)phenyl)-6-fluoropyridin-3-yl)-7-fluoro-3,4-dihydroisoquinolin-1(2H)-one]
11 to 100 | CO[C@@H]1CCN(Cc2cc(-c3cc(-c4cc5c(cc4F)C(=O)NCC5)c(N)nc3F)ccc2N2CCOCC2)C1 [I-564, (R)-6-(2-amino-6-fluoro-5-(3-((3-methoxypyrrolidin-1-yl)methyl)-4-morpholinophenyl)pyridin-3-yl)-7-fluoro-3,4-dihydroisoquinolin-1(2H)-one]
11 to 100 | CN(C)Cc1cc(-c2cc(-c3cc4c(cc3F)C(=O)NCC4)c(N)nc2F)ccc1C1CCOC1 (stereo not shown) [I-621, 6-(2-amino-5-(3-((dimethylamino)methyl)-4-(tetrahydrofuran-3-yl)phenyl)-6-fluoropyridin-3-yl)-7-fluoro-3,4-dihydroisoquinolin-1(2H)-one]
0.1 to 10 | CCN(C)Cc1nc(-c2cc(-c3cc4c(cc3F)C(=O)NCC4)c(N)nc2F)ccc1C1CCOCC1 [I-604, 6-(6′-amino-6-((ethyl(methyl)amino)methyl)-2′-fluoro-5-(tetrahydro-2H-pyran-4-yl)-[2,3′-bipyridin]-5′-yl)-7-fluoro-3,4-dihydroisoquinolin-1(2H)-one]
0.1 to 10 | CN(C)Cc1cc(-c2cc(-c3cc4c(cc3F)C(=O)NCC4)c(N)nc2F)ccc1OCC1CCOCC1 [I-533, 6-(2-amino-5-(3-((dimethylamino)methyl)-4-((tetrahydro-2H-pyran-4-yl)methoxy)phenyl)-6-fluoropyridin-3-yl)-7-fluoro-3,4-dihydroisoquinolin-1(2H)-one]
0.1 to 10 | CC(C)N1CCN(c2ccc(-c3cc(-c4cc5c(Cl)c[nH]c(=O)c5cn4)c(N)nc3F)cc2)CC1 [I-570, 6-(2-amino-6-fluoro-5-(4-(4-isopropylpiperazin-1-yl)phenyl)pyridin-3-yl)-4-chloro-2,7-naphthyridin-1(2H)-one]
11 to 100 | Cc1nc2cc(-c3cc(-c4ccc(C5CCOCC5)c([C@@H]5CCCN5)c4)c(F)nc3N)ccc2c(=O)[nH]1 [I-643, (S)-7-(2-amino-6-fluoro-5-(3-(pyrrolidin-2-yl)-4-(tetrahydro-2H-pyran-4-yl)phenyl)pyridin-3-yl)-2-methylquinazolin-4(3H)-one]
0.1 to 10 | CN(C)Cc1cc(-c2cc(-c3cc4c(cc3F)C(=O)NCC4)c(N)nc2F)ccc1N1CCN(CCCC(F)F)CC1 [I-447, 6-(2-amino-5-(4-(4-(4,4-difluorobutyl)piperazin-1-yl)-3-((dimethylamino)methyl)phenyl)-6-fluoropyridin-3-yl)-7-fluoro-3,4-dihydroisoquinolin-1(2H)-one]
11 to 100 | CN(C)Cc1cc(-c2cc(-c3ccc4c(c3)CCNC4=O)c(N)nc2F)c(F)cc1N1CCOCC1 [I-622, 6-(2-amino-5-(5-((dimethylamino)methyl)-2-fluoro-4-morpholinophenyl)-6-fluoropyridin-3-yl)-3,4-dihydroisoquinolin-1(2H)-one]
0.1 to 10 | CN(C)Cc1cc(-c2cc(-c3ccc4c(c3)CCNC4=O)c(N)nc2F)ccc1N1CCSCC1 [I-487, 6-(2-amino-5-(3-((dimethylamino)methyl)-4-thiomorpholinophenyl)-6-fluoropyridin-3-yl)-3,4-dihydroisoquinolin-1(2H)-one]

Compound | IC50 [nM]
COC1CCN(Cc2cc(-c3cc(-c4ccc5c(c4)CCNC5=O)c(N)nc3F)ccc2OCCCC(F)F)CC1 [I-526, 6-(2-amino-5-(4-(4,4-difluorobutoxy)-3-((4-methoxypiperidin-1-yl)methyl)phenyl)-6-fluoropyridin-3-yl)-3,4-dihydroisoquinolin-1(2H)-one] | 11 to 100
